Test results taken from patent US5175153A, “Substituted alpha-amino acids having pharmaceutical activity” (Warner-Lambert Company, priority 1988, dated 1992).
Read-outs that look alike come from different tables or passages of the source.

Columns and labels:
[1] = target: NMDA receptor; assay: NMDA receptor binding assay using [^3 H]CPP as antagonist ligand; settings: for IC50: [^3 H]CPP
Source text: The activity of the compounds of the formula I is shown in vitro in an NMDA receptor binding assay based on the use of [^3 H]CPP as antagonist ligand in a manner essentially as set out by B. E. Murphy et al in J. Pharm.

[2] = tested on: NMDA-Induced Subconvulsant Behavior; assay: Inhibitory effects in NMDA-induced subconvulsant behavior (tail biting) in Fisher rats; format: in vivo; settings: for % Responders: 30 min before 50 mg/kg IV NMDA; for Latency (min ± S.E.) / % I: 30 min before NMDA; for Latency (min ± S.E.): 60 minutes=maximum; for % I: [1 - % test responders/% control responders] × 100
Experimental: In a modification of those methods, subconvulsant tail biting was induced in Fisher rats by intravenous injection of 50 mg/kg NMDA. The incidence (%) and response time (60 minutes=maximum) of control and drug treated rats (I.P., 30 minutes before NMDA) were compared. The inhibitory effects of 2-amino-7-phosphonoheptanoic acid and Example VIII are shown in Table 2 (% responders and time (latency in minutes)).
*Rats were dosed IP, 2 mls/kg 30 min before NMDA.
**% I = [1 - % test responders/% control responders] × 100.

[3] = Observation of drug effects or normal behavior in rats dosed with NMDA
[4] = tested on: NMDA-induced seizure and death; assay: Inhibition of NMDA-induced seizures and death in mice; format: in vivo, male CF-1 mice; settings: Mus musculus
Experimental: Intraperitoneal injection of N-methyl-D-aspartic acid (NMDA) has been previously reported to induce clonic seizures in C57BL/6J mice (Bernard, P.S. et al, Models of N-methyl-D -aspartate antagonism: A comparison of 2-amino-7-phosphonoheptanoic acid with muscle relaxant drugs, 15th Annual Meeting, International Society for Neuroscience, 1985). In a modified version of the above protocol, male CF-1 mice received an intravenous injection of 25 mg/kg NMDA--behind the lateral aspect of the right eye. This induced a rapidly onsetting seizure followed shortly thereafter by death. […] ED50 were determined for inhibition of seizures and death through comparison of drug treatment groups (n=10) with their respective vehicle controls (n=10).

[5] = 0.5 h, IV, five minutes prior to 25 mg/kg IV NMDA, survivors at thirty minutes, read-out: Inhibition of Death ED50
[6] = IV, five minutes prior to 25 mg/kg IV NMDA, read-out: Inhibition of Seizures ED50

SMILES: NC(C(=O)O)c1cccc(CP(=O)(O)O)c1 (stereo not drawn) [Example II, Benzeneacetic Acid, α-Amino-3-(Phosphonomethyl)-]
- IC50 [1]: 11.8 µM

SMILES: NC(C(=O)O)c1ccc(CP(=O)(O)O)cc1 (racemic) [Example VIII, (±)-α-Amino-4-(Phosphonomethyl)Benzeneacetic Acid]
- % Responders ([2]; 25 mg/kg IP, phosphate buffer control 9/10): 2/9
- Latency (min ± S.E.) ([2]; 25 mg/kg IP, p < 0.01, phosphate buffer 24.8 ± 4.9): 51.6 ± 5.6 min
- % I ([2]; 25 mg/kg IP): 77.8%
- % Responders ([2]; 37 mg/kg IP, phosphate buffer control 9/10): 1/10
- Latency (min ± S.E.) ([2]; 37 mg/kg IP, p < 0.001, phosphate buffer 24.8 ± 4.9): 55.5 ± 4.5 min
- % I ([2]; 37 mg/kg IP): 88.9%
- inhibitory effects compared with 7-APH ([2]; in words, Table 2): inhibitory effects similar in potency and efficacy to 7-APH
- IC50 [1]: 0.99 µM
- most active of the most preferred compounds ([1]; in words, test not given): most active compound
- drug induced behavioral effects ([3]; 37 mg/kg and 25 mg/kg IP): no drug induced behavioral effects
- ED50 [4, 5]: 7.6 mg/kg
- ED50 [4, 6]: > 30 mg/kg

SMILES: NC(CCCCCP(=O)(O)O)C(=O)O (centres unmarked) [APH, 2-amino-7-phosphonoheptanoic acid, reference compound]
- % Responders ([2]; 10 mg/kg IP, saline control 9/10): 6/10
- Latency (min ± S.E.) ([2]; 10 mg/kg IP, p < 0.001, saline 15.8 ± 5.3): 43.3 ± 5.8 min
- % I ([2]; 10 mg/kg IP): 33.3%
- % Responders ([2]; 30 mg/kg IP, saline control 9/11): 1/10
- Latency (min ± S.E.) ([2]; 30 mg/kg IP, p < 0.01, saline 33.1 ± 5.8): 59.0 ± 1.0 min
- % I ([2]; 30 mg/kg IP): 87.8%
- IC50 [1]: 0.8 µM
- drug induced behavioral effects ([3]; 10 mg/kg IP): no drug induced behavioral effects
- ataxia ([3]; 30 mg/kg IP): no ataxia
- exploratory behavior ([3]; 30 mg/kg IP, versus controls): slightly less exploratory than controls
- ED50 ([4]; iv, 0.5 h, read-out: Inhibition of Death ED50): 30 mg/kg
- ED50 ([4]; iv, read-out: Inhibition of Seizures ED50): > 30 mg/kg

SMILES: NC(Cc1cccc(CP(=O)(O)O)c1)C(=O)O (centres unmarked) [Example III]
- IC50 [1]: 3.56 µM
- ED50 [4, 5]: 37 mg/kg
- ED50 [4, 6]: ~60 mg/kg

SMILES: NC(C(=O)O)c1cccc(P(=O)(O)O)c1 (racemic) [Example VI A, (±)-α-Amino-3-Phosphonobenzeneacetic Acid]
- IC50 [1]: 17.9 µM
